Patent US9573913B2, “Cathepsin cysteine protease inhibitors” (Merck Sharp & Dohme Corp., priority 2013, dated 2017)

What was measured:
[1] = target: human cathepsin K (UniProt P43236); assay: Cathepsin K Assay (hrbCat K); format: biochemical; conditions: Z-Leu-Arg-AMC substrate, pH 5.5, 15 min preincubation; read-out: hrbCat K (IP (nM))
Summary of the method: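 Human cathepsin K (0.4 nM) was preincubated 15 min at room temperature with compound in 50 mM MES pH 5.5, 2.5 mM EDTA, 2.5 mM DTT and 10% DMSO. Inhibition was fitted to a dose-response model.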

[2] = target: T1, human cathepsin F (Homo sapiens, UniProt Q9UBX1); assay: Cathepsin F assay (hCat F); format: biochemical; conditions: Z-Phe-Arg-AMC substrate, pH 5.5, 15 min preincubation; read-out: hCat F (IP (nM))
T1 sequence (Q9UBX1 271-484): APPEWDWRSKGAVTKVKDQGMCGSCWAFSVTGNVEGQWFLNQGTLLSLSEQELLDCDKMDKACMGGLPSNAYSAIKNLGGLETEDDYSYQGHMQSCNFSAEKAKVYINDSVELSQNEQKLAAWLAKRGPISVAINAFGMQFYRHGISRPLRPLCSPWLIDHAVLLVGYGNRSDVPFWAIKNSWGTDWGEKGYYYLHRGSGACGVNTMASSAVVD
Summary of the method: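 Enzyme (10 nM) was preincubated 15 min at room temperature with compounds (1/3 DMSO dilution series, 500–0.025 μM) in 50 mM MES pH 5.5, 2.5 mM EDTA, 2.5 mM DTT, 10% DMSO. Z-Phe-Arg-AMC (8 μM) was added and AMC fluorescence (Ex 360/Em 460 nm) followed for 20 min. % inhibition was fitted to dose-response curves.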

SMILES | IC50 [1] [nM] | IC50 [2] [nM]
N#CC1(NC(=O)[C@@H]2CCCC[C@H]2c2nc(N3CCO[C@@H](C(F)(F)F)C3)sc2-c2ccc(N3CCS(=O)(=O)CC3)cc2)CC1 [Example 144, (1R,2R)-N-(1-cyanocyclopropyl)-2-(5-(4-(1,1-dioxidothiomorpho-lino)phenyl)-2-((R)-2-(trifluoromethyl)morpholino)thiazol-4-yl)cyclohexane-carboxamide] | 3.3 | 5280
N#CC1(NC(=O)[C@@H]2CCCC[C@H]2c2nc(N3CCO[C@H](C(F)(F)F)C3)sc2-c2ccc(N3CCS(=O)(=O)CC3)cc2)CC1 [Example 145, (1R,2R)-N-(1-cyanocyclopropyl)-2-(5-(4-(1,1-dioxidothiomorpho-lino)phenyl)-2-((S)-2-(trifluoromethyl)morpholino)thiazol-4-yl)cyclohexane-carboxamide] | 4.3 | 7050
N#CC1(NC(=O)[C@@H]2CCCC[C@H]2c2nc(C3CCCOC3)sc2-c2ccc(N3CCS(=O)(=O)CC3)cc2)CC1 (stereo partly drawn) [Example 146, (1R,2R)-N-(1-cyanocyclopropyl)-2-(5-(4-(1,1-dioxidothiomorpho-lino)phenyl)-2-(tetrahydro-2H-pyran-3-yl)thiazol-4-yl)cyclohexane-carboxamide] | 4.6 | 1000
N#CC1(NC(=O)[C@@H]2CCCC[C@H]2c2nc([C@@H]3CCCCO3)sc2-c2ccc(N3CCS(=O)(=O)CC3)cc2)CC1 [Example 149, (1R,2R)-N-(1-cyanocyclopropyl)-2-(5-(4-(1,1-dioxidothiomorpho-lino)phenyl)-2-((S)-tetrahydro-2H-pyran-2-yl)thiazol-4-yl)cyclohexane-carboxamide] | 3.6 | 7560
N#CC1(NC(=O)[C@@H]2CCCC[C@H]2c2nc(-c3ccc(F)cc3)sc2-c2ccc(C3CN(C(=O)NCC(F)(F)F)C3)cc2)CC1 [Example 150, 3-(4-(4-((1R,2R)-2-((1-cyanocyclopropyl)carbamoyl)cyclohex-yl)-2-(4-fluorophenyl)thiazol-5-yl)phenyl)-N-(2,2,2-trifluoroethyl) azetidine-1-carboxamide] | 1.6 | 110
CC(=O)N1CC(c2ccc(-c3sc(-c4ccc(F)cc4)nc3[C@@H]3CCCC[C@H]3C(=O)NC3(C#N)CC3)cc2)C1 [Example 151, (1R,2R)-2-(5-(4-(1-acetylazetidin-3-yl)phenyl)-2-(4-fluorophenyl)thiazol-4-yl)-N-(1-cyanocyclopropyl) cyclohexanecarbox-amide] | 1.3 | 177
CN(CC(F)(F)F)c1nc([C@@H]2CCCC[C@H]2C(=O)NC2(C#N)CC2)c(-c2ccc(N3CCS(=O)(=O)CC3)cc2)s1 [Example 152, (1R,2R)-N-(1-cyanocyclopropyl)-2-(5-(4-(1,1-dioxidothiomorpho-lino)phenyl)-2-(methyl(2,2,2-trifluoroethyl)amino)thiazol-4-yl)cyclohexane-carboxamide] | 7 | ≥ 10000
N#CC1(NC(=O)[C@@H]2CCCC[C@H]2c2nc(N3CCC(F)(F)C3)sc2-c2ccc(N3CCS(=O)(=O)CC3)cc2)CC1 [Example 153, (1R,2R)-N-(1-cyanocyclopropyl)-2-(2-(3,3-difluoropyrrolidin-1-yl)-5-(4-(1,1-dioxidothiomorpho-lino)phenyl)thiazol-4-yl)cyclohexane-carboxamide] | 3.1 | 1000
N#CC1(NC(=O)[C@@H]2CCCC[C@H]2c2nc([C@@H]3CCOC3)sc2-c2ccc(N3CCS(=O)(=O)CC3)cc2)CC1 [Example 155, (1R,2R)-N-(1-cyanocyclopropyl)-2-(5-(4-(1,1-dioxidothiomorpho-lino)phenyl)-2-((R)-tetrahydrofuran-3-yl)thiazol-4-yl)cyclohexane-carboxamide] | 4 | 1000
N#CC1(NC(=O)[C@@H]2CCCC[C@H]2c2nc(NCC(F)(F)F)sc2-c2ccc(N3CCS(=O)(=O)CC3)cc2)CC1 [Example 156, (1R,2R)-N-(1-cyanocyclopropyl)-2-(5-(4-(1,1-dioxidothiomorpho-lino)phenyl)-2-((2,2,2-trifluoroethyl)amino)thiazol-4-yl)cyclohexane-carboxamide] | 8.8 | ≥ 10000
CC(C)(C)Nc1nc([C@@H]2CCCC[C@H]2C(=O)NC2(C#N)CC2)c(-c2ccc(N3CCS(=O)(=O)CC3)cc2)s1 [Example 157, (1R,2R)-2-(2-(tert-butylamino)-5-(4-(1,1-dioxidothiomorpho-lino)phenyl)thiazol-4-yl)-N-(1-cyanocyclopropyl) cyclohexanecarbox-amide] | 19.4 | ≥ 10000
N#CC1(NC(=O)[C@@H]2CCCC[C@H]2c2nc(C3CCS(=O)(=O)CC3)sc2-c2ccc(N3CCS(=O)(=O)CC3)cc2)CC1 [Example 158, (1R,2R)-N-(1-cyanocyclopropyl)-2-(2-(1,1-dioxidotetrahydro-2H-thiopyran-4-yl)-5-(4-(1,1-dioxidothiomorpho-lino)phenyl)thiazol-4-yl)cyclohexane-carboxamide] | 4.6 | ≥ 10000
CN=S1(=O)CCN(c2ccc(-c3sc(-c4ccc(F)cc4)nc3[C@@H]3CCCC[C@H]3C(=O)NC3(C#N)CC3)cc2)CC1 [Example 160, (1R,2R)-N-(1-cyanocyclopropyl)-2-(2-(4-fluorophenyl)-5-(4-(1-(methylimino)-1-oxidothiomorpholino)phenyl)thiazol-4-yl)cyclohexane-carboxamide] | 1.6 | 3330
CC(C)(c1ccccc1)c1nc([C@@H]2CCCC[C@H]2C(=O)NC2(C#N)CC2)c(-c2ccc(N3CCS(=O)(=O)CC3)cc2)s1 [Example 161, (1R,2R)-N-(1-cyanocyclopropyl)-2-(5-(4-(1,1-dioxidothiomorpho-lino)phenyl)-2-(2-phenylpropan-2-yl)thiazol-4-yl)cyclohexane-carboxamide] | 5.1 | 1000
Cc1nc([C@@H]2CCCC[C@H]2C(=O)NCC#N)c(-c2ccc(N3CCS(=O)(=O)CC3)cc2)o1 [Example 164, (1R,2R)-N-(cyanomethyl)-2-(5-(4-(1,1-dioxidothiomorpho-lino)phenyl)-2-methyloxazol-4-yl)cyclohexane-carboxamide] | 13.8 | ≥ 10000
N#CC1(NC(=O)[C@@H]2CC(F)(F)CC[C@H]2c2nc(-c3ccc(F)cc3)oc2-c2ccc(N3CCS(=O)(=O)CC3)cc2)CC1 [Example 165, (1R,2R)-N-(1-cyanocyclopropyl)-2-(5-(4-(1,1-dioxidothiomorpho-lino)phenyl)-2-(4-fluorophenyl)oxazol-4-yl)-5,5-difluorocyclohexane-carboxamide] | 0.6 | 61
CC(C)(C)c1nc([C@@H]2CCC(F)(F)C[C@H]2C(=O)NC2(C#N)CC2)c(-c2ccc(N3CCS(=O)(=O)CC3)cc2)o1 [Example 166, (1R,2R)-2-(2-(tert-butyl)-5-(4-(1,1-dioxidothiomorpho-lino)phenyl)oxazol-4-yl)-N-(1-cyanocyclopropyl)-5,5-difluorocyclohexane-carboxamide] | 0.7 | 356
CC(C)(C)c1nc([C@@H]2CCCC[C@H]2C(=O)NC2(C#N)CC2)c(-c2ccc(N3CCS(=O)(=O)CC3)cc2)o1 [Example 167, (1R,2R)-2-(2-(tert-butyl)-5-(4-(1,1-dioxidothiomorpho-lino)phenyl)oxazol-4-yl)-N-(1-cyanocyclopropyl) cyclohexanecarbox-amide] | 2.4 | 5120
CC(C)(C)c1nc([C@@H]2CC[C@H](F)C[C@H]2C(=O)NC2(C#N)CC2)c(-c2ccc(N3CCS(=O)(=O)CC3)cc2)o1 [Example 168, (1R,2R,5S)-2-(2-(tert-butyl)-5-(4-(1,1-dioxidothiomorpho-lino)phenyl)oxazol-4-yl)-N-(1-cyanocyclopropyl)-5-fluorocyclohexane-carboxamide] | 3.3 | ≥ 10000
C[C@@H](C#N)NC(=O)[C@@H]1C[C@@H](F)CC[C@H]1c1nc(C(C)(C)C)oc1-c1ccc(N2CCS(=O)(=O)CC2)cc1 [Example 169, (1R,2R,5S)-2-(2-(tert-butyl)-5-(4-(1,1-dioxidothiomorpho-lino)phenyl)oxazol-4-yl)-N-((S)-1-cyanoethyl)-5-fluorocyclohexane-carboxamide] | 2.7 | 5660
CC(C)[C@@H](C#N)NC(=O)[C@@H]1C[C@@H](F)CC[C@H]1c1nc(C(C)(C)C)oc1-c1ccc(N2CCS(=O)(=O)CC2)cc1 [Example 170, (1R,2R,5S)-2-(2-(tert-butyl)-5-(4-(1,1-dioxidothiomorpho-lino)phenyl)oxazol-4-yl)-N-((S)-1-cyano-2-methylpropyl)-5-fluorocyclohexane-carboxamide] | 12 | ≥ 10000
C[C@@H](C#N)NC(=O)[C@@H]1C[C@@H](F)CC[C@H]1c1nc(C(C)(C)C)oc1-c1ccc(N2CCS(=N)(=O)CC2)cc1 [Example 171, (1R,2R,5S)-2-(2-(tert-butyl)-5-(4-(1-imino-1-oxidothiomorpholino)phenyl)oxazol-4-yl)-N-((S)-1-cyanoethyl)-5-fluorocyclohexane-carboxamide] | 4.8 | 7420
